Test results as given in ChEMBL document CHEMBL1143516, “Mercaptoamide-based non-hydroxamic acid type histone deacetylase inhibitors” (Bioorg Med Chem Lett, 2005).

Molecular target: Histone deacetylase
Experiment: In vitro inhibitory concentration against Histone deacetylase; Control value 0.06 uM
Assay type: protein assay, Homo sapiens

Going from `O=C(CCCCC(=O)Nc1ccccc1)NCCS` to `O=C(CCCCCC(=O)Nc1ccccc1)NCCS`, the IC50 rises from 1.5 µM to 2.5 µM (1.7-fold).

First: O=C(CC(=O)Nc1ccccc1)NCCS
Second: O=C(CCC(=O)Nc1ccccc1)NCCS
The IC50 of the first is 5.6-fold higher: 70 µM for the first, 12.5 µM for the second.

Compared with `O=C(CCCCCCCC(=O)Nc1ccccc1)NCCS`, `O=C(CCCCCCC(=O)Nc1ccccc1)NCCS` is 4.3-fold lower in IC50: 10.2 µM for the first, 2.35 µM for the second.

`O=C(NCCS)C(=O)Nc1ccccc1` and `O=C(CCCC(=O)Nc1ccccc1)NCCS` are within 1.5-fold of each other in IC50: 2.8 µM for the first, 3.1 µM for the second.

Compared with `O=C(CS)NCCC(=O)Nc1cnc2ccccc2c1`, `O=C(CS)NCCCC(=O)Nc1cnc2ccccc2c1` is 60-fold lower in IC50: 39.5 µM for the first, 0.66 µM for the second.

Compared with `O=C(CS)NCCCCC(=O)Nc1cnc2ccccc2c1`, `O=C(CS)NCCCCCC(=O)Nc1cnc2ccccc2c1` is 2.5-fold lower in IC50: 2.8 µM for the first, 1.1 µM for the second.

`O=C(CCCCCC[N-]CC[S-])Nc1ccccc1.[Zn+2]` was tested, and the IC50 was greater than 100 µM.
